Reference: patent US9981972B2, “N-hydroxy bicyclic hydantoin carbamates as tools for identification of serine hydrolase targets” (ABIDE THERAPEUTICS, INC., priority 2014, dated 2018)
Values after ≈ are worked out from the molar mass of the structure shown.

Assays:
Solubility in PBS = format: physicochemical; conditions: phosphate buffered saline, aqueous buffer, kinetic from dmso stock, PBS pH 7.4, 1% DMSO, 22° C.
Description: The solubility of compounds were tested in triplicate in phosphate buffered saline (PBS), pH 7.4. Per well, 198 μL PBS is added to a Millipore Solvinert Hydrophilic PTFE 96 well filter plate: pore size: 0.45 μm (MSRLN0450). Test compounds were introduced from 10 mM DMSO stock solutions (2 μL). The final concentration of DMSO was 1 percent. Samples were allowed to incubate at 22° C. for 18 hours. In the morning the plate was centrifuged where the soluble portion passes through the filter and was collected in a capture plate. Clotrimazole was included as a control to assure the assay was working properly. The samples were analyzed by HPLC. Peak area was compared to a standard of known concentration.

Stability in PBS = format: physicochemical; conditions: 10 μM compound, ambient temperature
Description: Samples were held in the HPLC autosampler at ambient temperature. At approximately 0, 1, 2, 4, 8, 24, and 48 hours the samples were injected on the HPLC. Peak area and retention time were compared between injections. Data was log transformed and represented as half-life. DMSO was added as a co-solvent as needed for solubility.

[1] = Determination of glutathione reactivity; format: physicochemical; conditions: 10 μM compound, 50 μM glutathione, 37° C., 6 h
Description: Compound (10 μM) was incubated at 37° C. for 6 hours in the presence of 50 μM freshly prepared reduced glutathione. At 0 and 6 hours the samples were injected into the HPLC instrument. Peak area and retention time were compared between injections. Samples were evaluated for a glutathione dependent decrease in compound concentration. DMSO was added as a co-solvent as needed for solubility.

human LYPLA1 = target: T1, human LYPLA1 (Homo sapiens, UniProt O75608); test: IC50 by gel-based competitive ABPP in situ, cultured HeLa cells; format: cell-based; conditions: 2 h, serum-supplemented medium
T1 construct: endogenous human LYPLA1/2 in a HeLa soluble proteome; endogenous in cells; host or cells: HeLa (soluble proteome in vitro; cultured cells in situ)
T1 sequence (O75608 whole entry): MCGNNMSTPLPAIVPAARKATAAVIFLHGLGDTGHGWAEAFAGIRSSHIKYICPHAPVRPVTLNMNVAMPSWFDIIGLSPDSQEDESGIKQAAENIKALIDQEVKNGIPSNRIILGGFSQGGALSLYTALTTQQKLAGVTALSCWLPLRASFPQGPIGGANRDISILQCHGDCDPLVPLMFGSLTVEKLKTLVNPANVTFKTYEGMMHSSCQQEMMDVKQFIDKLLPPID
Description: (§1) Assay Overview: The purpose of this assay was to determine IC50 values of powder samples of test compounds for enzyme of interest activity in situ using a gel-based competitive ABPP assay. In this assay, cultured cells were treated with test compound, harvested, and lysed. The isolated soluble proteome fraction was reacted with FP-Rh and analyzed by SDS-PAGE as described above.
(§2) Protocol Summary: To cultured HeLa cells (90% confluent) was added fresh DMEM (5 mL total volume; supplemented with 10% FCS) pre-mixed with DMSO or test compound. After 2 hours at 37° C., cells were harvested by scraping, washed twice with 10 mL DPBS, and homogenized by sonication in DPBS. The soluble fraction was isolated by centrifugation (100K×g, 45 minutes) and the protein concentration was adjusted to 1 mg/mL with DPBS. FP-Rh (1 μL of 50× stock in DMSO) was added to a final concentration of 2 μM in 50 μL total reaction volume. The reaction was incubated for 30 minutes at 25° C., quenched with 16 μL 4×SDS-PAGE loading buffer (reducing), separated by SDS-PAGE and visualized by in-gel fluorescent scanning. The percentage activity remaining was determined by measuring the integrated optical density of the enzymes of interest, and anti-target bands relative to a DMSO-only (no compound) control. […]

human LYPLA2 = target: T2, human LYPLA2 (Homo sapiens, UniProt O95372); test: as above; format: cell-based; conditions: 2 h, serum-supplemented medium
T2 construct: endogenous human LYPLA1/2 in a HeLa soluble proteome; endogenous in cells; host or cells: HeLa (soluble proteome in vitro; cultured cells in situ)
T2 sequence (O95372 whole entry): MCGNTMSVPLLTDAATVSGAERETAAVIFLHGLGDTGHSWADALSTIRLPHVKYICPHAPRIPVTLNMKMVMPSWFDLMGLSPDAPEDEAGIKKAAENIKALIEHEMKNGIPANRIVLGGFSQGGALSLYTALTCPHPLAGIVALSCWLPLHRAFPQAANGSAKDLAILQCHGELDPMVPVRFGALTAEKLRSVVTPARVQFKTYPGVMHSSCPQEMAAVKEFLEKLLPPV
Description: as §1, §2

[2] = tested on: SH anti-targets in HeLa cells; test: Gel-based competitive ABPP in situ, cultured HeLa cells, anti-targets; format: cell-based, human; conditions: 2 h, any compound concentration, ABHD6 not visible
Description: as §1
as §2, with “The reaction was incubated for 30 minutes at 25° C., quenched with 16 μL 4×SDS-PAGE loading buffer (reducing), separated by SDS-PAGE and visualized by in-gel fluorescent scanning.” left out
Compound 1 is active in situ against the LYPLA enzymes (see FIG. 3A) as assessed by gel-based competitive ABPP with FP-Rh following two hours of compound treatment of HeLa cells cultured in serum-supplemented medium.

HeLa cells = test: Analysis of cytotoxicity (WST-1); format: cell-based, human
Description: Assay Overview: The purpose of this assay was to determine cytotoxicity of powder samples of test compounds. In this assay, HeLa cells in either serum-free medium or medium containing fetal calf serum (FCS) were incubated with test compounds, followed by determination of cell viability. The assay utilized the WST-1 substrate, which was converted into colorimetric formazan dye by the metabolic activity of viable cells. The amount of formed formazan directly correlated to the number of metabolically active cells in the culture.
Protocol Summary: This assay was started by seeding HeLa cells in DMEM medium supplemented with 10% FCS and 1× Pen-Strep-Glutamine in a 96-well plate. Cells were incubated at 37° C. in a humidified incubator until 80% confluent (24 hours). Medium was removed, and 100 μL of fresh medium (serum-free or supplemented with 10% FCS), pre-mixed with DMSO or test compound, was added to each well. Cells were incubated for 48 hours at 37° C. in a humidified incubator and cell viability was determined by the WST-1 assay (Roche) according to manufacturer instructions. CC50 values were determined from dose-response curves from three replicates at each inhibitor concentration (10, 100, 1000, 10000, 100000 nM), compared to six replicates of cells treated with DMSO only.

ABHD4 = target: T3, ABHD4 (Mus musculus, UniProt Q8VD66); test: Inhibition by gel-based competitive ABPP in vivo; conditions: 1-40 mg/kg i.p., 4 h, any tissue examined
T3 construct: from tissue; host or cells: tissues of C57BL6 mice
T3 sequence (Q8VD66 whole entry): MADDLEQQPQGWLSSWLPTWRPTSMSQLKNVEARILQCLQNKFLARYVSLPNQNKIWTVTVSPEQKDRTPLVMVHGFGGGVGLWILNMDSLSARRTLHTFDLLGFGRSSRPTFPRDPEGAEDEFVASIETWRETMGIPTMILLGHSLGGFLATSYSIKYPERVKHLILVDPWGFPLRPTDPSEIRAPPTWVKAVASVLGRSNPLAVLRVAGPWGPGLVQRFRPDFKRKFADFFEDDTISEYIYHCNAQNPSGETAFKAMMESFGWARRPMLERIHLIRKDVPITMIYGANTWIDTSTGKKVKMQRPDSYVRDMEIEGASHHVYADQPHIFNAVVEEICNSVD
Description: Compound 26, Compound 34, and Compound 1 were administered across a dose range of 1-40 mg/kg to C57BL6 mice by intraperitoneal injection, and, after 4 hours, animals were sacrificed and tissues harvested for analysis by gel-based ABPP using the FP-Rh probe and the Compound 39 probe.

| solubility at 18 h (Solubility in PBS) [µM] | half-life at 10 µM (Stability in PBS) [h] | reactivity with glutathione [1] | IC50 (human LYPLA1) [nM] | IC50 (human LYPLA2) [nM] | SMILES | anti-target inhibition in situ [2] | cytotoxicity (HeLa cells; HeLa, 48 h, serum-free and serum-supplemented medium, up to 100 μM) | dosing window (CC50 limit 10 μM versus in situ IC50) (HeLa cells; based on in situ IC50 values of 87/143 nM) [fold] | blockade of ABHD4 in vivo (ABHD4) |
| --- | --- | --- | --- | --- | --- | --- | --- | --- | --- |
| 18 (≈ 9.61 µg/mL) | 19 | did not show any reactivity | 87 | 143 | O=C(ON1C(=O)C2CN(C(=O)N3CCOCC3)CCN2C1=O)N1CCC(CCc2ccc(Cl)cc2)CC1 (stereo not drawn) [Compound 1, 7-(morpholine-4-carbonyl)-1,3-dioxohexahydroimidazo[1,5-a]pyrazin-2(3H)-yl 4-(4-chloro-phenethyl)piperidine-1-carboxylate] | No anti-target inhibition | did not show evidence of cytotoxicity | ~70 | – |
| – | – | – | – | – | O=C(ON1C(=O)C2CN(Cc3ccc(Oc4ccccc4)cc3)CCN2C1=O)N1CCOCC1 (stereo not drawn) [Compound 34, 1,3-dioxo-7-(4-phenoxybenzyl)hexahydroimidazo[1,5-a]pyrazin-2(3H)-yl morpholine-4-carboxylate] | – | – | – | did not block the activity of ABHD4 in any tissue examined |
